According to US10035792B2, “Resorcinol derivative as HSP90 inhibitor” (priority 2015, dated 2018):
Like-named read-outs stand apart in the source and are kept apart here.

What was measured:
[1] = target: HSP90α (Homo sapiens (Human), UniProt P07900); experiment: Fluorescence polarization (FP) HSP90-alpha target binding assay
From the text: In the present invention, the method of fluorescence polarization (FP) was used to establish the screening platform for HSP90-alpha inhibitors. The principle based on is to calculate fluorescence polarization values in horizontal and vertical directions by detecting molecular weight changes before and after interaction of fluorescent labeled small molecules with other molecules, in use for correlation analysis. If binding equilibria between the fluorescent labeled small molecule and the macromolecule is established, it moves slowly when excited, and the fluorescence polarization values measured will increase. If the fluorescent labeled small molecule binding to the macromolecule is replaced with other ligands, its rotational or inversional speed in free state will become faster, the emitted light would be depolarized with respect to the exciting light plane, and thus the polarized light value measured will decrease, so as to calculate the polarization value of the sample (the unit of polarization value is mP).
The fluorescent labeled small molecule used in the present invention was VER-00051001 (synthesized by reference to the synthetic method described in JMC, 2008, 51, 196-218). The reaction was carried out in a 384-well black plate, using the reaction hydrophobic protein HFB buffer: 100 mM Tris.Cl pH 7.4, 20 mM KCl, 6 mM MgCl2, 5 μg/mL BSA, 25 nM full-length Hsp90U, 10 nM VER-51001. The volume of the reaction system was […], containing 5 nM GM-BODIPY (geldanamycin), 30 nM HSP90 and the test small molecular compound or DMSO (dimethyl sulfoxide), wherein the DMSO content was 2% o. Additional two group wells were established, wherein the wells only added with HFB buffer were used as blank controls, and the wells further added with 5 nM GM-BODIPY were used as negative controls. The reaction was carried out at 4° C. for 12-16 hours. The mP value was measured by Biotek microplate reader at 485 nm of excitation wavelength and 535 nm of emission wavelength. The inhibition rate was calculated using the following equation: (Compound-free mP−Compound mP)/(Compound-free mP−negative control mP)×100%

[2] = test system: human lung cancer cell line A549; experiment: Tumor cell growth inhibition, SRB staining, A549; type: cell-based; settings: A549, 72 h
Experimental: The growth inhibition assay of tumor cells was detected by sulforhodamine B (SRB) staining method. The specific steps were as follows: inoculating human colon cancer cell line HCT116 and human lung cancer cell line A549 (purchased from American Type Culture Collection, ATCC) at the logarithmic growth phase into a 96-well micro culture plate at an appropriate concentration of 4000 cells/well, 100 μL for each well; after culturing overnight, adding with the compound at different concentrations (100, 10, 1, 0.1, 0.01 μM) to react for 72 h, wherein triplicate wells were set up for each concentration, and solvent control wells with the corresponding concentration and zero wells without cells were also set up. After the completion of the reaction, the culture medium was removed from the adherent cells, the later was added with 10% (w/v) trichloroacetic acid (100 μL/well) at 4° C. to fix for 1 h, and then washed five times with distilled water. After drying at room temperature, 100 μL of SRB solution (4 mg/mL, dissolved in 1% glacial acetic acid) was added into each well, followed by incubation and staining for 15 min at room temperature. The uncombined SRB was removed by washing five times with 1% glacial acetic acid. After drying at room temperature, 100 μL of 10 mM Tris solution was added into each well, and the optical density (OD) at 515 nm was measured by a […] microplate reader. The inhibition rate of the drug to tumor cell growth was calculated according to the following equation: Inhibition rate (%)=(OD of control well-OD of drug well)/OD of control well×100%. The experiment was repeated twice.

[3] = fluorescence polarization, read-out: Target binding ability HSP90α FP IC50

| IC50 [1, 3] | EC50 [2] | SMILES | IC50 [1] |
| --- | --- | --- | --- |
| < 20 nM | 20 to 100 nM | CCNC(=O)c1noc(-c2cc(C(C)C)c(O)cc2O)c1-c1cc2c(s1)C(C)(C)NCC2 [Example 18, 5-(2,4-dihydroxyl-5-isopropylphenyl)-4-(7,7-dimethyl-4,5,6,7-tetrahydrothieno[2,3-c]pyridin-2-yl)-N-ethyl-isoxazole-3-carboxamide] |  |
| 20 to 100 nM | 20 to 100 nM | CCNC(=O)c1noc(-c2cc(C(C)C)c(O)cc2O)c1-c1nc2c(s1)CCN(C)C2 [Example 10, 5-(2,4-dihydroxyl-5-isopropyl-phenyl)-N-ethyl-4-(5-methyl-4,5,6,7-tetrahydrothiazolo[4,5-c]pyridin-2-yl)isoxazole-3-carboxamide] |  |
| 20 to 100 nM | > 100 nM | CCNC(=O)c1noc(-c2cc(Cl)c(O)cc2O)c1-c1ccc2c(c1)CCN(C)C2 [Example 31, 5-(2,4-dihydroxyl-5-chloro-phenyl)-N-ethyl-4-(2-methyl-1,2,3,4-tetrahydroisoquinolin-6-yl)isoxazole-3-carboxamide] |  |
| 20 to 100 nM | 20 to 100 nM | CCNC(=O)c1noc(-c2cc(C(C)C)c(O)cc2O)c1-c1ccc2c(c1)CCN(CCS(=O)(=O)CC)C2 [Example 48, 5-(2,4-dihydroxyl-5-isopropylphenyl)-N-ethyl-4-(2-(2-ethylsulfonyl)ethyl-1,2,3,4-tetrahydroisoquinolin-6-yl)isoxazole-3-carboxamide] |  |
| < 20 nM | < 20 nM | CNC(=O)c1noc(-c2cc(C(C)C)c(O)cc2O)c1-c1ccc2c(c1)CCN(C)C2 [Example 36, 5-(2,4-dihydroxyl-5-isopropylphenyl)-N-methyl-4-(2-methyl-1,2,3,4-tetrahydroisoquinolin-6-yl)isoxazole-3-carboxamide] |  |
| 20 to 100 nM | 20 to 100 nM | CCc1cnc(-c2noc(-c3cc(C(C)C)c(O)cc3O)c2-c2ccc3c(c2)CCN(CCO)C3)[nH]1 [Example 17, 4-(3-(5-ethyl-1H-imidazol-2-yl)-4-(2-(2-hydroxyethyl)-1,2,3,4-tetrahydroisoquinolin-6-yl)isoxazol-5-yl)-6-isopropylbenzene-1,3-diol] |  |
| < 20 nM | < 20 nM | CCNC(=O)c1onc(-c2cc(C(C)C)c(O)cc2O)c1-c1ccc2c(c1)CCN(C)C2 [Example 12, 3-(2,4-dihydroxyl-5-isopropylphenyl)-N-ethyl-4-(2-methyl-1,2,3,4-tetrahydroisoquinolin-6-yl)isoxazole-5-carboxamide] |  |
| 20 to 100 nM | > 100 nM | CCNC(=O)c1noc(-c2cc(C(C)C)c(O)cc2O)c1-c1ccc2c(c1)CCN(C(=O)CCN(C)C)C2 [Example 57, 5-(2,4-dihydroxyl-5-isopropylphenyl)-4-(2-(3-(dimethylamino)propionyl)-1,2,3,4-tetrahydroisoquinolin-6-yl)-N-ethylisoxazole-3-carboxamide] |  |
| 20 to 100 nM | > 100 nM | CC(C)c1cc(-c2onc(C(O)C(F)(F)F)c2-c2ccc3c(c2)CCN(C)C3)c(O)cc1O (stereo not drawn) [Example 20, 4-isopropyl-6-(4-(2-methyl-1,2,3,4-tetrahydroisoquinolin-6-yl)-3-(2,2,2-trifluoro-1-hydroxyethyl)isoxazol-5-yl)benzene-1,3-diol] |  |
| < 20 nM | < 20 nM | CCNC(=O)c1onc(-c2cc(C(C)C)c(O)cc2O)c1-c1ccc2c(c1)CCN(CCO)C2 [Example 69] |  |
| 20 to 100 nM | > 100 nM | CC(C)c1cc(-c2onc(C(=O)NCCN(C)C)c2-c2ccc3c(c2)CCN(C)C3)c(O)cc1O [Example 43, 5-(2,4-dihydroxyl-5-isopropylphenyl)-N-[2-(dimethylamino)ethyl]-4-(2-methyl-1,2,3,4-tetrahydroisoquinolin-6-yl)isoxazole-3-carboxamide] |  |
| < 20 nM | 20 to 100 nM | CCNC(=O)c1noc(-c2cc(C(C)C)c(O)cc2O)c1-c1cc2c(s1)CCN(C)CC2 [Example 22, 5-(2,4-dihydroxyl-5-isopropylphenyl)-N-ethyl-4-(6-methyl-5,6,7,8-tetrahydro-4H-thieno[2,3-d]azepin-2-yl) isoxazole-3-carboxamide] |  |
| < 20 nM | 20 to 100 nM | CCNC(=O)c1noc(-c2cc(C(C)C)c(O)cc2O)c1-c1ccc2c(c1)CCN(CCO)C2 [Example 44, 5-(2,4-dihydroxyl-5-isopropylphenyl)-N-ethyl-4-(2-(2-hydroxyethyl)-1,2,3,4-tetrahydroisoquinolin-6-yl)isoxazole-3-carboxamide] |  |
| 20 to 100 nM | > 100 nM | CCNC(=O)c1noc(-c2cc(C(C)C)c(O)cc2O)c1-c1cnc2c(c1)CN(C)CC2 [Example 19, 5-(2,4-dihydroxyl-5-isopropylphenyl)-N-ethyl-4-(6-methyl-5,6,7,8-tetrahydro-1,6-naphthyridin-3-yl)isoxazole-3-carboxamide] |  |
| < 20 nM | 20 to 100 nM | CCNC(=O)c1noc(-c2cc(C(C)C)c(O)cc2O)c1-c1ccc2c(c1)CCCN(C)C2 [Example 26, 5-(2,4-dihydroxyl-5-isopropylphenyl)-N-ethyl-4-(2-methyl-2,3,4,5-tetrahydro-1H-benzo[c]azepin-7-yl)isoxazole-3-carboxamide] |  |

| SMILES | IC50 [1, 3] | EC50 [2] | IC50 [1] |
| --- | --- | --- | --- |
| CCNC(=O)c1noc(-c2cc(C(C)C)c(O)cc2O)c1-c1ccc2c(c1)C1CCC2N1C (stereo not drawn) [Example 5, 5-(2,4-dihydroxyl-5-isopropylphenyl)-N-ethyl-4-(9-methyl-1,2,3,4-tetrahydro-1,4-epiminonaphth-6-yl)isoxazole-3-carboxamide] |  | < 20 nM | 20 to 100 nM |
| CCNC(=O)c1noc(-c2cc(C(C)C)c(O)cc2O)c1-c1ccc2c(c1)C1CCC2N1CC(C)C (stereo not drawn) [Example 8, 5-(2,4-dihydroxyl-5-isopropylphenyl)-N-ethyl-4-(9-isobutyl-1,2,3,4-tetrahydro-1,4-epiminonaphth-6-yl)isoxazole-3-carboxamide] |  | < 20 nM | 20 to 100 nM |
| CCNC(=O)c1noc(-c2cc(C(C)C)c(O)cc2O)c1-c1ccc2c(c1)C1CCC2N1CC (stereo not drawn) [Example 6, 5-(2,4-dihydroxyl-5-isopropylphenyl)-N-ethyl-4-(9-ethyl-1,2,3,4-tetrahydro-1,4-epiminonaphth-6-yl)isoxazole-3-carboxamide] |  | < 20 nM | 20 to 100 nM |
